# Like-named read-outs stand apart in the source and are kept apart here.
# Tests used:
# Type in all cases: biochemical
# [1] = biological target: T1, mouse 17β-HSD2 (Mus musculus, UniProt P51658); assay: Inhibition of mouse 17β-HSD2 (liver microsomal fraction); settings: for IC50: read-out: IC50 m17β-HSD2; for inhibition at 0.1 µM: read-out: % inhibition m17β-HSD2 @ 100 nM; for inhibition at 0.05 µM: read-out: % inhibition m17β-HSD2 @ 50 nM; for inhibition at 1 µM: read-out: % inhibition m17β-HSD2 @ 1 μM
# T1 construct: The pellet fractions containing the microsomal 17β-HSD2 were used for the determination of E1 formation; from tissue; host or cells: mouse liver, microsomal fraction
# T1 sequence (P51658 1-381): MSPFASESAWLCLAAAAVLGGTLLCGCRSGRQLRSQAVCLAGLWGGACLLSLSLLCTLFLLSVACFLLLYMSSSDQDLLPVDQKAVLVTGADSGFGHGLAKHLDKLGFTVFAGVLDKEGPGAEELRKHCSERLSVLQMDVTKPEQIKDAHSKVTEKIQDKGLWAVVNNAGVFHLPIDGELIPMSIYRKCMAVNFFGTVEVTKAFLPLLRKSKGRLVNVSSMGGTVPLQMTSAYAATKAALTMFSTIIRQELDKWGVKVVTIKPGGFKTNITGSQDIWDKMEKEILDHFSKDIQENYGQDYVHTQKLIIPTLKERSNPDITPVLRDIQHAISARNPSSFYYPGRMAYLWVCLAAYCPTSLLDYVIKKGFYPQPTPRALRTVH
# Experimental: Microsomal 17β-HSD2 fractions were obtained from mouse or rat liver. Fresh liver tissues were processed as described for the human placental 17β-HSD2 preparation. The pellet fractions containing the microsomal 17β-HSD2 were used for the determination of E1 formation.
# (§1) The conversion rate was calculated after analysis of the resulting chromatograms according to the following equation: % conversion=[% E1/(% E1+% E2)]×100
# [2] = biological target: T2, mouse 17β-HSD1 (Mus musculus, UniProt P51656); assay: Inhibition of mouse 17β-HSD1 (recombinant, HEK293 lysate); settings: for IC50: read-out: IC50 m17β-HSD1
# T2 construct: made in house; host or cells: HEK293 cells, transient transfection; 1,000 g supernatant of the cell lysate
# T2 sequence (P51656 1-344): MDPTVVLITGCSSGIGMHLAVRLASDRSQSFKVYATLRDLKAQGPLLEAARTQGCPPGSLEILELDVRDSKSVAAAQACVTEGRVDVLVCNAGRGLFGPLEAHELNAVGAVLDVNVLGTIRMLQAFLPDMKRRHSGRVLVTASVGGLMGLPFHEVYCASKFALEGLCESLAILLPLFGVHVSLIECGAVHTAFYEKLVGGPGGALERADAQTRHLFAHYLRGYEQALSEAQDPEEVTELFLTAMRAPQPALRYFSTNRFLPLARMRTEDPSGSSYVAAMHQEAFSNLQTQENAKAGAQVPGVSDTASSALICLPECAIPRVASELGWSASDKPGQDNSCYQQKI
# [3] = biological target: T3, human 17β-HSD2 (Homo sapiens, UniProt P37059); assay: Inhibition of human 17β-HSD2 (conversion of [3H]-E2 to E1); settings: for inhibition at 0.01 µM: read-out: % inhibition h17β-HSD2 @ 10 nM
# T3 construct: 17β-HSD2 was obtained from the microsomal fraction; from tissue; host or cells: human placenta, microsomal fraction
# T3 sequence (P37059 1-387): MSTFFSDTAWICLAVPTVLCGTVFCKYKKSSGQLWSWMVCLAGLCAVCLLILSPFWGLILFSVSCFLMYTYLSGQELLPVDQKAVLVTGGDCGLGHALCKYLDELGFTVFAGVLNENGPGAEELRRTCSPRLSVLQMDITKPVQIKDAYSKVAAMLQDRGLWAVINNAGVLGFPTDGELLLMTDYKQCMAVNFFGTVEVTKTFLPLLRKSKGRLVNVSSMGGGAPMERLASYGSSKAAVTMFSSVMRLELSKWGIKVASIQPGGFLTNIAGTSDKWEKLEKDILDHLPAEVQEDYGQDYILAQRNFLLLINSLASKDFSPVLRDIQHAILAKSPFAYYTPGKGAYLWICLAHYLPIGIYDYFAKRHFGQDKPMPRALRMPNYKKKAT
# Experimental: Fresh human placenta was homogenized, and cytosolic fraction and microsomes were separated by differential centrifugation at 1,000 g, 10,000 g and 150,000 g.
# as §1
# [4] = biological target: T4, human 17β-HSD1 (Homo sapiens, UniProt P14061); assay: Inhibition of human 17β-HSD1 (conversion of [3H]-E1 to E2, HPLC radioflow detection); settings: for IC50: human placental cytosolic enzyme, E1 500 nM, NADH, Tables 1, 4-11, read-out: IC50 [nM] h17β-HSD1; for inhibition at 0.01 µM: read-out: % inhibition h17β-HSD1 @ 10 nM
# T4 construct: For the partial purification of 17β-HSD1, the cytosolic fraction was precipitated with ammonium sulfate; from tissue; host or cells: human placenta, cytosolic fraction, ammonium sulfate precipitate
# T4 sequence (P14061 1-328): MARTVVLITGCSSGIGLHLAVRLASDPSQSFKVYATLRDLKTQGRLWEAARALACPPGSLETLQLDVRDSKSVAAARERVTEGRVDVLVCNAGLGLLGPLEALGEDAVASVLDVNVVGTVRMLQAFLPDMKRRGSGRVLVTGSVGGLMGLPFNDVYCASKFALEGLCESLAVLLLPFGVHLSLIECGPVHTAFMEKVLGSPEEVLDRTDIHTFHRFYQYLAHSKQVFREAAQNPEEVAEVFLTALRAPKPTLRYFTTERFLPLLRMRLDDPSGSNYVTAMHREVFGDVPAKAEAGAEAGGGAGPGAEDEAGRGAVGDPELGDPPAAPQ
# [5] = read-out: Inhibition @ 1 μM m17β-HSD1
# [6] = read-out: % inhibition m17β-HSD1 @ 1 μM
compound,measurement,setting,value
"O=C(c1ccc(-c2ccc3cc[nH]c3c2)s1)c1cc(F)c(F)c(O)c1F [Compound 43, (5-(1H-Indol-6-yl)thiophen-2-yl)(2,4,5-trifluoro-3-hydroxyphenyl)methanone]",IC50,[1],113 nM
same,IC50,"[2]; recombinant mouse enzyme, E1 10 nM, NADPH",1.14 µM
same,IC50,[3]; read-out: IC50 [nM] h17β-HSD2,7.5 nM
same,IC50,[4],28.8 nM
"NC(=O)c1cccc(-c2ccc(C(=O)c3cc(F)c(F)c(O)c3F)s2)c1 [Compound 44, 3-(5-(2,4,5-Trifluoro-3-hydroxybenzoyl)thiophen-2-yl)benzamide]",inhibition at 0.1 µM,[1],19%
same,inhibition at 0.1 µM,"[2]; read-out: % inhibition m17β-HSD1 @ 100 nM, compound 100 nM",10%
same,IC50,[3]; read-out: IC50 [nM] h17β-HSD2,6.8 nM
same,IC50,[4],22.4 nM
"COc1c(C)cc(-c2ccc(C(=O)c3cc(F)c(F)c(O)c3F)s2)cc1C [Compound 46, (5-(4-Methoxy-3,5-dimethylphenyl)thiophen-2-yl)(2,4,5-trifluoro-3-hydroxyphenyl)methanone]",inhibition at 0.1 µM,[1],16%
same,inhibition at 1 µM,[2]; [5],13.4%
same,IC50,[3]; read-out: IC50 [nM] h17β-HSD2,2.3 nM
same,IC50,[4],1.2 nM
"O=C(c1ccc(-c2cccc(CO)c2)s1)c1cc(F)c(F)c(O)c1F [Compound 47, (5-(3-(Hydroxymethyl)phenyl)thiophen-2-yl)(2,4,5-trifluoro-3-hydroxyphenyl)methanone]",IC50,[1],260 nM
same,inhibition at 1 µM,[2]; [5],13.8%
same,IC50,[3]; read-out: IC50 [nM] h17β-HSD2,4.4 nM
same,IC50,[4],5.9 nM
"O=C(c1ccc(-c2cc(Cl)c(O)c(Cl)c2)s1)c1cc(F)c(F)c(O)c1F [Compound 49, (5-(3,5-Dichloro-4-hydroxyphenyl)thiophen-2-yl)(2,4,5-trifluoro-3-hydroxyphenyl)methanone]",inhibition at 1 µM,[2]; [5],13.8%
same,IC50,[3]; read-out: IC50 [nM] h17β-HSD2,11.2 nM
same,IC50,[4],9.1 nM
"NS(=O)(=O)c1ccc(-c2ccc(C(=O)c3c(F)ccc(O)c3F)s2)cc1 [Compound 75, 4-(5-(2,6-Difluoro-3-hydroxybenzoyl)thiophen-2-yl)benzenesulfonamide]",inhibition at 0.05 µM,[1],10%
same,inhibition at 0.01 µM,[3],54%
same,inhibition at 0.01 µM,[4],18%
"NS(=O)(=O)c1cccc(-c2ccc(C(=O)c3c(F)ccc(O)c3F)s2)c1 [Compound 76, 3-(5-(2,6-Difluoro-3-hydroxybenzoyl)thiophen-2-yl)benzenesulfonamide]",inhibition at 0.05 µM,[1],1.8%
same,inhibition at 0.01 µM,[3],26%
same,inhibition at 0.01 µM,[4],34%
"COc1c(Cl)cc(-c2ccc(C(=O)c3c(F)ccc(O)c3Cl)s2)cc1Cl [Compound 78, (2-Chloro-6-fluoro-3-hydroxyphenyl)(5-(3,5-dichloro-4-methoxyphenyl)thiophen-2-yl)methanone]",inhibition at 0.05 µM,[1],76%
same,inhibition at 0.01 µM,[3],54%
same,inhibition at 0.01 µM,[4],41%
"O=C(c1cccc(O)c1)c1ccc(-c2ccc(O)c(Cl)c2)s1 [D, reference compound]",inhibition at 1 µM,[1],9%
same,inhibition at 1 µM,[2]; [6],42%
same,IC50,[3],240 nM
same,IC50,[4],5 nM
"Cc1c(O)cccc1C(=O)c1ccc(-c2ccc(O)c(Cl)c2)s1 [E, reference compound]",inhibition at 1 µM,[1],92%
same,inhibition at 1 µM,[2]; [6],14%
same,inhibition at 1 µM,[3]; read-out: % inhibition h17β-HSD2 @ 1 μM,93%
same,inhibition at 1 µM,[4]; read-out: % inhibition h17β-HSD1 @ 1 μM,76%
"Cc1cc(-c2ccc(C(=O)c3cccc(O)c3C)s2)cc(C)c1O [G, reference compound]",IC50,[1],546 nM
same,IC50,"[2]; Table 7, unit μM",35.5 µM
same,IC50,[3]; read-out: IC50 [nM] h17β-HSD2,239 nM
same,IC50,[4],899 nM

# — US9884839B2, “Inhibitors of 17Beta-hydroxysteroid dehydrogenases type 1 and type 2” (ElexoPharm GmbH, priority 2014, dated 2018)
